Data as given in ChEMBL document CHEMBL3301361, “Experimental in vitro DMPK and physicochemical data on a set of publicly disclosed compounds”.

Experiment: physchem
Settings: octan-1-ol/water, pH 7.4

Row | Compound | logD
1 | Oc1ccc2c3c1O[C@H]1c4[nH]c5ccccc5c4C[C@@]4(O)[C@@H](C2)N(CC2CC2)CC[C@]314 [NALTRINDOLE] | 2.7
2 | NC(=O)c1cn([C@@H]2O[C@H](CO)[C@@H](O)[C@H]2O)c2ncnc(N)c12 [SANGIVAMYCIN] | -0.87
3 | CCC1(c2ccc(N)cc2)CCC(=O)NC1=O (stereo unspecified) [AMINOGLUTETHIMIDE] | 0.6
4 | CCN(CC)C(=O)c1ccc(C(=C2CCNCC2)c2ccccc2OC)cc1 | 1
5 | CCCNC(=O)c1nnc2c(-c3cnccc3OC)cccc2c1N | 2.83
6 | CN1CCC[C@H]1c1ccccn1 | 0.44
7 | CN(C)C(=O)N[C@H]1CC[C@@H](CCN2[C@@H]3CC[C@H]2C[C@@H](Oc2cccc(C(N)=O)c2)C3)CC1 | 0.22
8 | NC(=O)c1cc(F)cc(O[C@H]2C[C@H]3CC[C@@H](C2)N3Cc2ccccc2)c1 | 2.14
9 | Cc1c(O[C@H]2C[C@H]3CC[C@@H](C2)N3Cc2ccccc2)cccc1C(N)=O | 1.6
10 | CN(C)C(=O)c1ccc(C(=C2CCN(Cc3cscn3)CC2)c2cccc3cccnc23)cc1 | 2.3
11 | CCC1(C)CC(=O)NC1=O (stereo unspecified) [ETHOSUXIMIDE] | 0.23
12 | COc1cc(F)ccc1-c1cncc(C2CCCN2)c1 (stereo unspecified) | 1.1

Same assay, conditions: octan-1-ol/water, pH 7.4, LogD7.4

Row | Compound | logD
13 | CC(C)C(NC(=O)Cn1c(-c2ccccc2)ccc(NC(=O)Cc2cccc(C(=O)O)c2)c1=O)C(=O)C(F)(F)F (stereo unspecified) | 0.68
14 | Cc1cn([C@H]2CCCN(S(=O)(=O)c3ccc(C(=O)O)c(Oc4ccc(Cl)c(Cl)c4)c3)C2)c(=O)[nH]c1=O | -0.87
15 | CNC1(C)C2CCC(C2)C1(C)C (stereo unspecified) [MECAMYLAMINE] | -0.84
16 | COc1ccc(-c2ccc3c(N4CCOC[C@@H]4C)nc(-n4ccnc4)nc3n2)cc1CO | 2.6
17 | N=C(N)SCc1ccc(Cl)c(Cl)c1 | 1.28
18 | C=CCNS(=O)(=O)c1ccc(NC(=O)[C@@](C)(O)C(F)(F)F)c(Cl)c1 | 3.07
19 | Cc1ccc(O)c(O)c1 | 1.37
20 | CCCSc1nc(N2CCCCC2C(=O)O)ccc1C(=O)NC1CCCCC1 (stereo unspecified) | 1.36
21 | Cc1cccc(C(=O)N2CCC(C(=O)c3ccc(F)cc3)CC2)c1 | 3.4
22 | NC(=O)c1cnc(N[C@H]2CCCNC2)c2cc(-c3ccc(F)c(F)c3)sc12 | 2.17
23 | N#C/C(=C(/N)Sc1ccc(N)cc1)c1ccccc1C(F)(F)F | 3.3
24 | Nc1cc2n[nH]c(=O)n2c2cc(-c3ccco3)ccc12 | 2.48
25 | O=C(NC[C@@H](O)CN1CCC(Oc2ccc(Cl)c(Cl)c2)CC1)c1c[nH]c(=O)c2ccc(F)cc12 | 3.93
26 | Cc1ncc(-c2nc(Nc3ccc(C(=O)NC4CCN(C)CC4)cc3)ncc2F)n1C(C)C | 2.13
27 | O=C1CCC(=O)N1C(CCc1ccncc1)COc1ccc(-c2cccc([N+](=O)[O-])c2)cc1 (stereo unspecified) | 3.88
28 | CN[C@@H](C)C(=O)N[C@H](C(=O)N[C@H]1CCCN(CCc2ccc(OC)cc2)C1)C(C)(C)C | 1.45
29 | CC(C)C[C@@H](CO)NS(=O)(=O)c1ccc(Cl)s1 | 2.8
30 | FC(F)(F)c1cc(COCC(c2ccccc2)N2CCNCC2)cc(C(F)(F)F)c1 (stereo unspecified) | 2.9
31 | O=C(N[C@@H]1Cc2ccccc2N(C[C@@H](O)CO)C1=O)c1cc2cc(Cl)sc2[nH]1 | 3.27
32 | Cc1[nH]c2nc(NCc3ccc(Cl)cc3)nn2c(=O)c1Cc1ccccc1 | 3.7
33 | CCCC(=O)NCc1cncc(-c2ccc(F)cc2OC)c1 | 2.9
34 | COc1ccccc1CN[C@H]1CCCN[C@H]1c1ccccc1 [CP-99994] | 1.5
35 | Brc1cc(Br)cc(COC[C@H](c2ccccc2)N2CCNCC2)c1 | 2.8
36 | O=C(N[C@@H](Cc1cccc(OCCCNc2ccccn2)c1)C(=O)O)c1c(Cl)cccc1Cl | 0.16

Row | Compound | logD
37 | CSc1ncccc1C(=O)NCc1ccc(C)cc1 | 2.71
38 | COCCNS(=O)(=O)c1ccc(-c2cnc(N)c(C(=O)Nc3cccnc3)n2)cc1 | 2.26
39 | CCN(CC)CCCNCc1cc(Cl)c2cccnc2c1O [CLAMOXYQUIN] | 0.72
40 | COc1ccc(-c2cc(=O)c3ccccc3[nH]2)cc1 | 2.71
41 | CNC(=O)c1ccc(Nc2ncc(F)c(-c3cnc(C)n3C(C)C)n2)cc1F | 3.31
42 | COc1ccc2c(C)cc(N[C@H]3CCC[C@H](NCc4ccsc4)C3)nc2c1 | 2.46
43 | CCC(c1nc2ccsc2c(=O)n1Cc1ccccc1)N(CCCN)C(=O)c1ccc(C)nc1 (stereo unspecified) | 2.56
44 | O=C(Nc1ccccc1)c1cc2ccccc2o1 | 3.44
45 | CCC(c1nc2snc(C)c2c(=O)n1Cc1ccccc1)N(CCCN)C(=O)c1ccc(C)cc1 (stereo unspecified) | 1.61
46 | CC(C)N(C(=O)C(c1cccnc1)C(CNC(=O)NCc1ccccc1F)c1ccccc1)C(C)C (stereo unspecified) | 4.2
47 | CC[C@H](NC(=O)c1c([S+](C)[O-])c(-c2ccccc2)nc2ccccc12)c1cccnc1 (stereo partly specified) | 2.2
48 | Cc1cc(Nc2ncc(F)c(-c3cnc(C)n3C(C)C)n2)ccc1C(=O)N(C)C | 2.86
49 | CCNc1nc(N)c(C(=O)c2ccc(Cl)s2)s1 | 3.63
50 | Fc1cc(F)cc(-c2cc(N(CCCN3CCCCCC3)Cc3ccc4c(c3)OCO4)on2)c1 | 3.84
51 | Cc1cccc(C)c1NC(=O)C(C)N (stereo unspecified) [TOCAINIDE] | -0.15
52 | COc1cc(C(=O)NS(=O)(=O)c2ccccc2)ccc1Cn1cnc2ccc(NC(=O)CC3CCCC3)cc21 | 0.9
53 | c1ccc(-c2cn3ccccc3n2)cc1 | 2.9
54 | COc1ccc2nc(C)cc(-n3cc(CNC(C)=O)nn3)c2c1 | 1.6
55 | O=C(COCc1ccncc1)N1CCC(c2ccc(F)cc2Cl)CC1 | 2.7
56 | C[C@H]1O[C@@H](n2cnc3c(N)nc(Oc4ccccc4)nc32)[C@H](O)[C@@H]1O | 1.05
57 | Cc1nc2c(C#N)cnn2c(O)c1Cc1ccccc1 | 0.68
58 | CC(=O)NC[C@H]1CN(c2ccc(N3Cc4cccnc4C3)c(F)c2)C(=O)O1 | 2.88
59 | FC(F)(F)c1nnc2ccc(-n3ccnc3)nn12 | 0.91
60 | CS(=O)(=O)c1ccc(C(=O)Nc2ccc(Cl)c(-c3ccccn3)c2)c(Cl)c1 [VISMODEGIB] | 2.84

Row | Compound | logD
61 | CC(=O)Nc1ccc2[nH]cc(-c3cc(NC4CC4)n4ncc(C#N)c4n3)c2c1 | 2.65
62 | CCOC(=O)[C@H](Cc1ccc([N+](=O)[O-])cc1)NC(=O)c1ccccc1 | 2.79
63 | Cc1ccc2[nH]c(C(=O)N3CCN(C)CC3)cc2c1 | 2.22
64 | COc1cccc([C@@H](C)NCCCc2ccccc2Cl)c1 | 3
65 | CNc1cccc(CCOc2ccc(C[C@H](NC(=O)c3c(C)cc(C)cc3C)C(=O)O)cc2)n1 | 0.52
66 | CCCCNc1nc(N)c2[nH]c(=O)n(Cc3ccc(OCCN(C)C)nc3)c2n1 | 1.9
67 | CN[C@@H](C)C(=O)N[C@H](C(=O)N[C@H]1CCCN(CCc2ccc(O)cc2)C1)C(C)(C)C | 0.77
68 | COc1ccc2nc3ccccc3c(N)c2c1 | 1
69 | O=S(=O)(Nc1cc(F)ccc1F)c1ccc(Cl)cc1 | 2.9
70 | Nc1nc(CCc2cccc(Br)c2)cc(=O)[nH]1 | 2.52
71 | COc1ccc(Cn2c(=O)[nH]c3c(=O)n(CC(=O)NC(C(=O)C(F)(F)F)C(C)C)c(-c4ccccc4)cc3c2=O)cc1 (stereo unspecified) | 2.93
72 | Cc1ncc(-c2ccnc(Nc3ccc(C#N)cc3)n2)n1C(C)C | 3.62
73 | O=S(=O)(NCC(c1ccccc1)N1CCCCCC1)c1ccc(F)c(F)c1 (stereo unspecified) | 2.84
74 | NC(=O)c1cnc2[nH]c(-c3ccc(OCCN4CCCCC4)cc3)nc2c1NCCCNC(=O)C1CCC1 | 2.48
75 | CCOC(=O)c1ccc(OC(=O)CCCCCNC(=N)N)cc1 [GABEXATE] | 2.41
76 | COc1ccccc1CNC(=O)c1ccc2cnccc2n1 | 1.8
77 | CS(=O)(=O)c1ccc(-c2cc(C(=O)N[C@H]3CCCNC3)c(NC(N)=O)s2)cc1 | 0.68
78 | CC(C)C[C@H](N)c1nnc(S(=O)(=O)Cc2ccc(F)cc2)o1 | 1.11
79 | Cn1cc(C#N)cc1-c1c2c(=O)n(CCO)c(=O)n(CC3CC3)c2nn1Cc1ccnc2ccc(Cl)cc12 | 3
80 | Clc1ccc2[nH]ncc2c1 | 2.44
81 | COc1ccc(Oc2cccc(CN3CCCC(n4cc(C)c(=O)[nH]c4=O)C3)c2)cc1 (stereo unspecified) | 3.17
82 | CC(C)Oc1ccc(S(C)(=O)=O)cc1C(=O)N1CCN(c2ccc(C(F)(F)F)cc2)CC1 | 3.33
83 | COc1ccc(-c2nc3c(NCCCNC(=O)c4ccccc4)c(Br)cnc3[nH]2)cc1 | 0.25
84 | CCCSc1nc2ccc(NC(=O)CCC(=O)O)cc2s1 | 0.5

Row | Compound | logD
85 | NCCCC(=O)OCCN1CCN(CCCN2c3ccccc3Sc3ccc(Cl)cc32)CC1 [PERPHENAZINE 4-AMINOBUTYRATE] | 1.5
86 | Cc1ccc(S(=O)(=O)c2ccccc2)cc1 | 2.74
87 | COc1cc(/C=C2/SC(=O)NC2=O)cc(OC)c1O | 0.74
88 | CC#Cc1cncc(-c2cccc(C3(C4CC4)N=C(C)C(N)=N3)c2)c1 (stereo unspecified) | 3.3
89 | COc1ccc(-c2nc3c(NCCCNC(=O)C4CCCC4)c(C(N)=O)cnc3[nH]2)cc1 | 3.13
90 | CC#Cc1ccnc(-c2cccc([C@@]3(c4cc(C)c(=O)n(CC)c4)N=C(N)c4c(F)cccc43)c2)c1 | 4.4
91 | Nc1ccccc1NC(=O)c1ccc(CNC(=O)OCc2cccnc2)cc1 [ENTINOSTAT] | 1.26
92 | COc1cc(C(=O)c2cc(Cl)ccc2N)cc(OC)c1OC | 3.38
93 | CC(C)Cn1c(=O)n(C)c(=O)c2c(S(=O)(=O)N3CC[C@@H](O)C3)c(Cc3ccccc3C(F)(F)F)sc21 | 3.32
94 | CCOC(=O)c1ccc(N)cc1 [BENZOCAINE] | 1.83
95 | Cc1cc(Cl)ccc1OC1CCN(C[C@H](O)CNC(=O)c2c[nH]c(=O)c3cc(S(C)(=O)=O)ccc23)CC1 | 2.42
96 | CN1CCN2c3ncccc3Cc3ccccc3C2C1 (stereo unspecified) [MIRTAZAPINE] | 2.82
97 | COc1cc(N2CCN(C(C)=O)CC2)ccc1Nc1ncc(Cl)c(-c2cnc3cc(C#N)ccn23)n1 | 2.3
98 | O=C1c2ccc(O)cc2C(=O)N1c1ccccc1 | 2.3
99 | CNC(=O)c1ccc(Nc2nccc(-c3cnc(C)n3C(C)C)n2)cc1F | 2.95
100 | OCCN1CC=CC[C@H](c2ccc(Cl)c(Cl)c2)C1 | 2.37
101 | O=C1C(=O)c2cc([N+](=O)[O-])ccc2-c2ccccc21 | 2.42
102 | CCS(=O)(=O)c1ccc(Oc2c(C)n(CC(=O)O)c3ccc(C(F)(F)F)cc23)cc1 | 0.29
103 | O=C(O)c1ccc2cccc(O)c2n1 | 3.3
104 | CS(=O)(=O)N1CCOc2cc(COc3ccccc3)cnc21 | 2.4
105 | CC(=O)N[C@H](C)c1ccc(Nc2ncc3cc(-c4ccncc4)cc(C)c3n2)cc1 | 3.46
106 | CC(=O)Nc1ccc2c(c1)c(-c1cc(NC3CC3)n3ncc(C#N)c3n1)cn2C | 2.94
